The assay deals with P. acnes. The assay can be described thus: agar dilution method: growth index and MIC on P. acnes (single compounds and combinations). Particulars: for MIC: Cutibacterium acnes; for growth of P. Acnes with the combination compared with 15-OHEPA used alone: in combination with 15-OHEPA; for growth of P. Acnes with the combination compared with DGLA used alone: in combination with DGLA; for growth of P. Acnes with the combination compared with 15-HETrE used alone: in combination with 15-HETrE. In kind it is cell-based. As to the method:
Several compounds including fatty acids such as DGLA, 15-OHEPA, and 15-HETrE were tested to determine their capacity to inhibit the growth of P. acnes. In an exemplary method, an agar dilution method was used to determine the minimum inhibitory concentration (MIC) of each tested compound. Briefly, the agar dilution method involved preparing a series of concentrations of each compound (e.g., nicotinamide, benzoyl peroxide, adapalene, metronidazole, DGLA, 15-OHEPA, and 15-HETrE) in a Reinforced Clostridial Agar (RCA) media that facilitates growth of P. acnes under anaerobic conditions. An inoculum of P. acnes was prepared by incubation of P. acnes for approximately seven days at 35-37° C. to achieve a ≧1.0 OD600 inoculum of P. acnes in RCM broth. A portion of this inoculum was then added to the surface of each plate as a 10 μL spot and incubated at 35-37° C. for 72 hours or more. Growth of P. acnes was then observed and compared to control plates in which no compound has been added, and positive inhibition plates prepared with erythromycin. […] The growth of P. acnes in the presence of nicotinamide, benzoyl peroxide, adapalene, metronidazole, DGLA, 15-OHEPA, and 15-HETrE was determined with varying concentrations of the compound (see, Table 2). Next, the MIC was determined as the concentration at which a marked reduction (+) occurs in the appearance of growth on the test plate (as per Clinical and Laboratory Standards Institute M11-A7). The compounds tested singly in Example 1 were tested in combination with one another to determine the capacity of the combination to inhibit the growth of P. acnes. In an exemplary method, the MIC was determined for each of the combination as described in Example 1. Briefly, test combinations included DGLA with nicotinamide, benzoyl peroxide, adapalene, or metronidazole; 15-HETrE with nicotinamide, benzoyl peroxide, adapalene, or metronidazole; and 15-OHEPA with nicotinamide, benzoyl peroxide, adapalene, or metronidazole. The tables below show the growth of P. acnes in the presence of 0.4 or 1.0 mg/mL DGLA with varying concentrations of nicotinamide, benzoyl peroxide, adapalene, or metronidazole (Table 3); the growth of P. acnes in the presence of 0.01 or 0.05 mg/mL 15-HETrE with varying concentrations of nicotinamide, benzoyl peroxide, adapalene, or metronidazole (Table 5); and the growth of P. acnes in the presence of 0.5 or 0.1 mg/mL 15-OHEPA with varying concentrations of nicotinamide, benzoyl peroxide, adapalene, or metronidazole (Table 7).

The mark [1] stands for this setting: read-out: MIC (mg/mL) with 0.01 mg/mL 15-HETrE spike.
[2] abbreviates: read-out: MIC (mg/mL) with 0.05 mg/mL 15-OHEPA spike.
[3] abbreviates: with 0.05 mg/mL 15-HETrE (inhibitory concentration), read-out: MIC (mg/mL) with 0.05 mg/mL 15-HETrE spike.
Setting [4] is: with 0.1 mg/mL 15-OHEPA (inhibitory concentration), read-out: MIC (mg/mL) with 0.1 mg/mL 15-OHEPA spike.
The mark [5] stands for this setting: with 0.4 mg/mL dGLA (Sigma), read-out: MIC (mg/mL) with 0.4 mg/mL dGLA spike.
Where [6] appears, read: with 1.0 mg/mL dGLA (Cayman), read-out: MIC (mg/mL) with 1.0 mg/mL dGLA spike.

Where two headings read alike, the source gives them in different places.

The values below come from patent US20140171358A1, “ANTIMICROBIAL COMPOSITIONS COMPRISING DGLA AND NEOMYCIN SULFATE AND METHODS OF USE THEREOF” (Dignity Sciences Limited, priority 2012, published 2014).

With `COc1ccc(-c2ccc3cc(C(=O)O)ccc3c2)cc1C12CC3CC(CC(C3)C1)C2` [Adapalene], the “growth of P. Acnes with the combination compared with 15-OHEPA used alone” value is listed as “did not reduce the growth of P. Acnes below that of 15 OHEPA used alone” and the “growth of P. Acnes with the combination compared with DGLA used alone” value is “did not reduce the growth of P. Acnes below that of DGLA used alone”. Besides, under setting [1], the MIC fell in the range of 0.6 to 0.7 mg/mL. The MIC under setting [2] is greater than 0.8 mg/mL. Further, under setting [3], the MIC was less than 0.2 mg/mL. Further, under setting [4], the MIC is less than 0.2 mg/mL. In addition, under setting [5], the MIC is greater than 0.6 mg/mL. The MIC under setting [6] is greater than 0.6 mg/mL.
In the case of `NC(=O)c1cccnc1` [Nicotinamide], the “growth of P. Acnes with the combination compared with 15-HETrE used alone” value is listed as “did not reduce the growth of P. Acnes below that of 15-HETrE used alone”, the “growth of P. Acnes with the combination compared with 15-OHEPA used alone” value is reported as “did not reduce the growth of P. Acnes below that of 15 OHEPA used alone” and the “growth of P. Acnes with the combination compared with DGLA used alone” value is on record as “did not reduce the growth of P. Acnes below that of DGLA used alone”. In addition, under setting [1], the MIC fell in the range of 10 to 15 mg/mL. Further, under setting [2], the MIC lay within 10 to 15 mg/mL. In addition, under setting [3], the MIC was less than 1 mg/mL. Besides, the MIC under setting [4] was less than 1 mg/mL. Also, the MIC under setting [5] fell in the range of 10 to 15 mg/mL. Also, the MIC under setting [6] was in the range of 10 to 15 mg/mL.
As for `Cc1ncc([N+](=O)[O-])n1CCO` [Metronidazole], the “growth of P. Acnes with the combination compared with 15-HETrE used alone” value is “did not reduce the growth of P. Acnes below that of 15-HETrE used alone”, the “growth of P. Acnes with the combination compared with 15-OHEPA used alone” value was “did not reduce the growth of P. Acnes below that of 15 OHEPA used alone” and the “growth of P. Acnes with the combination compared with DGLA used alone” value is “did not reduce the growth of P. Acnes below that of DGLA used alone”. In addition, the MIC under setting [1] was greater than 1 mg/mL. In addition, the MIC under setting [2] is greater than 1 mg/mL. Under setting [3], the MIC is less than 0.2 mg/mL. Besides, the MIC under setting [4] is less than 0.2 mg/mL. The MIC under setting [5] was greater than 1 mg/mL. Further, the MIC under setting [6] is greater than 1 mg/mL.
Take `O=C(OOC(=O)c1ccccc1)c1ccccc1` [Benzoyl Peroxide]: the “growth of P. Acnes with the combination compared with 15-HETrE used alone” value is recorded as “did not reduce the growth of P. Acnes below that of 15-HETrE used alone”. Also, the MIC (compound alone, read-out: MIC (mg/mL) as per P-11-0007 or P-11-0008 Addendum A) was 0.6 to 0.8 mg/mL. Also, under setting [1], the MIC fell in the range of 0.6 to 0.8 mg/mL. Further, the MIC under setting [2] fell in the range of 0.4 to 0.6 mg/mL. Moreover, under setting [3], the MIC was less than 0.2 mg/mL. Moreover, the MIC under setting [4] is less than 0.2 mg/mL. Further, the MIC under setting [5] fell in the range of 0.2 to 0.4 mg/mL. Under setting [6], the MIC lay within 0.2 to 0.4 mg/mL.
